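Step 1: Grow cells in 96-well plates. Step 2: Expose to compound for 48 hours at 5 concentrations. Step 3: Interpolate endpoints linearly; if unreached, use highest concentration. GI50 marks 50% less growth.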 Activity calls are given as the source filed them. Cut-off read from the data, not from the text of the source: active = GI50 up to about 1.1 µM and inactive = higher.

What all share (experiment): growth of human tumour cells (NCI), 48 h
Experiment [1] has as its system SF-539.
Experiment [2] has as its system HCT-15.
Experiment [3] has as its system A498.
For experiment [4], the system named is U-251.
Experiment [5] has as its system RPMI-8226.
Experiment [6] relates to KM12.
Experiment [7] concerns EKVX.
For experiment [8], the system named is Malme-3M.
In experiment [9] the test system is SR.
Experiment [10] deals with OVCAR-5.
Experiment [11] deals with OVCAR-8.
Experiment [12] has as its system LOX IMVI.
Experiment [13] concerns MOLT-4.
Experiment [14] concerns SK-MEL-2.
Experiment [15] concerns NCI-H460.
The subject of experiment [16] is IGROV-1.
The subject of experiment [17] is SN12C.
Experiment [18] concerns SK-MEL-28.
Experiment [19] deals with HL-60.
For experiment [20], the system named is NCI-H522.

For the molecule `C/C(=N\O)C1CC(CC(=O)O)C1(C)C` (stereo not given), the GI50 was > 100 µM (inactive) in [1]; > 100 µM in [2]; > 100 µM (inactive) in experiment [3]; > 100 µM (inactive) in experiment [4]; > 100 µM (inactive) in [5]; > 100 µM (inactive) in [6]. Also, the GI50 in experiment [7], in [8], in experiment [9], in [10], in [11] and in [12] was > 100 µM (inactive) each time. Moreover, the GI50 in experiment [13], in [14], in [15], in experiment [16], in experiment [17] and in experiment [18] was > 100 µM (inactive) in each case. Further, the GI50 in experiment [19] and in [20] was > 100 µM (inactive) each time.

For the molecule `CC(=O)/N=C1/N(/C=C2\C(=O)Oc3ccccc3C2=O)C(=O)/C(=C/c2ccc(OC(C)=O)cc2)N1C`, the GI50 in experiment [1] is > 100 µM (inactive); in experiment [2], > 100 µM; in experiment [3], 9.18 µM (inactive); in experiment [4], > 100 µM (inactive); in experiment [5], > 100 µM (inactive); in experiment [6] it was > 100 µM (inactive). Moreover, the GI50 in experiment [7], in [8], in experiment [9], in [10], in [11] and in [12] was > 100 µM (inactive) in each case. Further, the GI50 in experiment [13], in experiment [14], in experiment [15], in [16], in experiment [17] and in [18] was > 100 µM (inactive) in each case. The GI50 in experiment [19] and in experiment [20] was > 100 µM (inactive) in each case.

The values are drawn from ChEMBL document CHEMBL1201862, “PubChem BioAssay data set” (2004).
